Results from patent publication US20160256449A1, “H3 RECEPTOR ANTAGONIST FOR USE IN THE TREATMENT OF ALZHEIMER'S DISEASE” (SANOFI, priority 2013, published 2016).

How the values were obtained:
[1] = test system: patients with mild to moderate Alzheimer's disease; test: clinical study, Neuropsychiatric Inventory (NPI) domain scores; type: in vivo, human
Experimental: (§1) A randomized, double-blind, parallel-group, placebo-controlled clinical trial was performed to study the effect on cognitive performance, safety, and tolerability of 2-(cyclohexylmethyl)-N-{2-[(2S)-1-methylpyrrolidin-2-yl]ethyl}-1,2,3,4-tetrahydroisoquinoline-7-sulfonamide difumarate monohydrate as adjunct treatment to donepezil.
(§2) More specifically, patients with mild to moderate Alzheimer's disease on stable donepezil therapy were randomized to receive doses of 0.5 mg, 2 mg, or 5 mg/day of 2-(cyclohexylmethyl)-N-{2-[(2S)-1-methylpyrrolidin-2-yl]ethyl}-1,2,3,4-tetrahydroisoquinoline-7-sulfonamide difumarate monohydrate or placebo for 24 weeks, with a 10 week follow-up period.
(§3) Patients were randomized to receive 0.5 mg, 2 mg, or 5 mg of 2-(cyclohexylmethyl)-N-{2-[(2S)-1-methylpyrrolidin-2-yl]ethyl}-1,2,3,4-tetrahydroisoquinoline-7-sulfonamide difumarate monohydrate (measured in base form), or matching placebo once a day, with donepezil (5 mg or 10 mg in the form the patient took prior to enrollment), for 24 weeks, with or without food.
[…] (NPI) domain scores of irritability/lability, anxiety, agitation/aggression, sleep and nighttime behavior disorders, aberrant motor behaviour, apathy/indifference, appetite/eating change, delusions, depression/dysphoria, disinhibition, elation/euphoria, and hallucinations.

[2] = test system: patients with mild to moderate Alzheimer's disease; test: clinical study, treatment emergent adverse events (TEAE); type: in vivo, human; details: for Patients with an TEAE / Patients with any treatment emergent serious adverse event / TEAE: Anxiety / TEAE: Cardiac disorders / TEAE: Depressive disorders / TEAE: Dermatitis / TEAE: Diarrhea / TEAE: Dyspepsia / TEAE: Gastrointestinal disorders / TEAE: Hiatus hernia / TEAE: Infections and infestations / TEAE: Muscle spasm / TEAE: Musculoskeletal and connective tissue disorders / TEAE: Other (Falls) / TEAE: Psychiatric disorders / TEAE: Rashes / TEAE: Skin and subcutaneous tissue disorders / TEAE: Sleep disorders and Disturbance / TEAE: Vascular disorders: with donepezil
Experimental: as §1, §2, §3

CN1CCC[C@H]1CCNS(=O)(=O)c1ccc2c(c1)CN(CC1CCCCC1)CC2 [API, 2-(cyclohexylmethyl)-N-{2-[(2S)-1-methylpyrrolidin-2-yl]ethyl}-1,2,3,4-tetrahydroisoquinoline-7-sulfonamide difumarate monohydrate]
NPI Elation/Euphoria, Ch from bl W24 ([1]; 5 mg/day with donepezil): 0.10
NPI Hallucination, Ch from bl W12 ([1]; 5 mg/day with donepezil): −0.14
NPI Hallucination, Ch from bl W24 ([1]; 5 mg/day with donepezil): −0.15
NPI Irritability lability, Ch from bl W12 ([1]; 5 mg/day with donepezil): 0.03
NPI Irritability lability, Ch from bl W24 ([1]; 5 mg/day with donepezil): 0.47
NPI Sleep and nighttime behavior, Ch from bl W12 ([1]; 5 mg/day with donepezil): 0.08
NPI Sleep and nighttime behavior, Ch from bl W24 ([1]; 5 mg/day with donepezil): 0.71
domains of the NPI, overall ([1]; 0.5, 2, 5 mg/day with donepezil): No relevant modification
Patients with an TEAE ([2]; 0.5 mg (N = 72)): 53 (73.6%)
Patients with any treatment emergent serious adverse event ([2]; 0.5 mg (N = 72)): 10 (13.9%)
TEAE: Anxiety ([2]; 0.5 mg (N = 72)): 3 (4.2%)
TEAE: Cardiac disorders ([2]; 0.5 mg (N = 72)): 5 (6.9%)
TEAE: Depressive disorders ([2]; 0.5 mg (N = 72)): 1 (1.4%)
TEAE: Dermatitis ([2]; 0.5 mg (N = 72)): 1 (1.4%)
TEAE: Diarrhea ([2]; 0.5 mg (N = 72)): 7 (9.7%)
TEAE: Dyspepsia ([2]; 0.5 mg (N = 72)): 1 (1.4%)
TEAE: Gastrointestinal disorders ([2]; 0.5 mg (N = 72)): 11 (15.3%)
TEAE: Hiatus hernia ([2]; 0.5 mg (N = 72)): 0%
TEAE: Infections and infestations ([2]; 0.5 mg (N = 72)): 20 (27.8%)
TEAE: Muscle spasm ([2]; 0.5 mg (N = 72)): 1 (1.4%)
TEAE: Musculoskeletal and connective tissue disorders ([2]; 0.5 mg (N = 72)): 5 (6.9%)
TEAE: Other (Falls) ([2]; 0.5 mg (N = 72)): 9 (12.5%)
TEAE: Psychiatric disorders ([2]; 0.5 mg (N = 72)): 21 (29.2%)
TEAE: Rashes ([2]; 0.5 mg (N = 72)): 1 (1.4%)
TEAE: Skin and subcutaneous tissue disorders ([2]; 0.5 mg (N = 72)): 7 (9.7%)
TEAE: Sleep disorders and Disturbance ([2]; 0.5 mg (N = 72)): 12 (16.7%)
TEAE: Vascular disorders ([2]; 0.5 mg (N = 72)): 2 (2.8%)
Patients with an TEAE ([2]; 2 mg (N = 72)): 54 (76.1%)
Patients with any treatment emergent serious adverse event ([2]; 2 mg (N = 72)): 10 (14.1%)
TEAE: Anxiety ([2]; 2 mg (N = 72)): 4 (5.6%)
TEAE: Cardiac disorders ([2]; 2 mg (N = 72)): 3 (4.2%)
TEAE: Depressive disorders ([2]; 2 mg (N = 72)): 2 (2.8%)
TEAE: Dermatitis ([2]; 2 mg (N = 72)): 3 (4.2%)
TEAE: Diarrhea ([2]; 2 mg (N = 72)): 7 (9.9%)
TEAE: Dyspepsia ([2]; 2 mg (N = 72)): 1 (1.4%)
TEAE: Gastrointestinal disorders ([2]; 2 mg (N = 72)): 18 (25.4%)
TEAE: Hiatus hernia ([2]; 2 mg (N = 72)): 0%
TEAE: Infections and infestations ([2]; 2 mg (N = 72)): 11 (15.5%)
TEAE: Muscle spasm ([2]; 2 mg (N = 72)): 2 (2.8%)
TEAE: Musculoskeletal and connective tissue disorders ([2]; 2 mg (N = 72)): 12 (16.9%)
TEAE: Other (Falls) ([2]; 2 mg (N = 72)): 7 (9.9%)
TEAE: Psychiatric disorders ([2]; 2 mg (N = 72)): 18 (25.4%)
TEAE: Rashes ([2]; 2 mg (N = 72)): 4 (5.6%)
TEAE: Skin and subcutaneous tissue disorders ([2]; 2 mg (N = 72)): 15 (21.1%)
TEAE: Sleep disorders and Disturbance ([2]; 2 mg (N = 72)): 11 (15.5%)
TEAE: Vascular disorders ([2]; 2 mg (N = 72)): 3 (4.3%)
Patients with an TEAE ([2]; 5 mg (N = 69)): 59 (85.5%)
Patients with any treatment emergent serious adverse event ([2]; 5 mg (N = 69)): 8 (11.6%)
TEAE: Anxiety ([2]; 5 mg (N = 69)): 4 (5.8%)
TEAE: Cardiac disorders ([2]; 5 mg (N = 69)): 5 (7.2%)
TEAE: Depressive disorders ([2]; 5 mg (N = 69)): 5 (7.2%)
TEAE: Dermatitis ([2]; 5 mg (N = 69)): 3 (4.3%)
TEAE: Diarrhea ([2]; 5 mg (N = 69)): 4 (5.8%)
TEAE: Dyspepsia ([2]; 5 mg (N = 69)): 3 (4.3%)
TEAE: Gastrointestinal disorders ([2]; 5 mg (N = 69)): 17 (24.6%)
TEAE: Hiatus hernia ([2]; 5 mg (N = 69)): 3 (4.3%)
TEAE: Infections and infestations ([2]; 5 mg (N = 69)): 16 (23.2%)
TEAE: Muscle spasm ([2]; 5 mg (N = 69)): 7 (10.6%)
TEAE: Musculoskeletal and connective tissue disorders ([2]; 5 mg (N = 69)): 16 (23.2%)
TEAE: Other (Falls) ([2]; 5 mg (N = 69)): 7 (10.1%)
TEAE: Psychiatric disorders ([2]; 5 mg (N = 69)): 27 (39.1%)
TEAE: Rashes ([2]; 5 mg (N = 69)): 1 (1.4%)
TEAE: Skin and subcutaneous tissue disorders ([2]; 5 mg (N = 69)): 5 (7.2%)
TEAE: Sleep disorders and Disturbance ([2]; 5 mg (N = 69)): 21 (30.4%)
TEAE: Vascular disorders ([2]; 5 mg (N = 69)): 3 (4.3%)
sleep disorders and disturbances, incidence among groups ([2]; 5 mg group): highest incidence
safety and tolerability ([2]; 0.5, 2, 5 mg/day with donepezil, 24 weeks): safe and well tolerated
vascular disorders, incidence over placebo ([2]; all treated groups): low incidence
